We go through 8 compounds from patent US20210395210A1, “INHIBITION OF BACTERIAL CHAPERONIN SYSTEMS” (THE TRUSTEES OF INDIANA UNIVERSITY, priority 2018, published 2021).

The target of test [1] is T1, native MDH (Sus scrofa, UniProt P00346).
T1 construct: soluble pig heart MDH from Roche, product #10127248001; purchased Roche 10127248001; host or cells: pig heart
T1 sequence (P00346 25-338): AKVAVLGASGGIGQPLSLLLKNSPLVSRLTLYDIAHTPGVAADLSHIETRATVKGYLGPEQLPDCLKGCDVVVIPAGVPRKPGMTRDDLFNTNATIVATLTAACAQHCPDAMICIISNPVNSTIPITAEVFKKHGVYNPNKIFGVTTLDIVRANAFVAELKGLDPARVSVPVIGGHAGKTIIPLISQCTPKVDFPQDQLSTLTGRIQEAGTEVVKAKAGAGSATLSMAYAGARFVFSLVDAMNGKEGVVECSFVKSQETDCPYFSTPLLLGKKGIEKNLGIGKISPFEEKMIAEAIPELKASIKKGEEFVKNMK
Kind of test: Counter-screen for inhibition of native MDH enzymatic activity. It is filed as biochemical, pig. As to conditions: for inhibition of native MDH enzymatic activity (in words): false-positive counter-screen. An outline of the steps: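 Fully refolded MDH, produced by a 45 min, 37 °C GroEL/ES reaction and stopped with EDTA, was then dosed with compound (62.5 μM–29 nM, 8 points, 3-fold). Activity was read as A340 NADH decrease until ~90% consumed; reported IC50s are means of at least quadruplicate runs.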

For test [2], the system named is Enterococcus faecium (ATCC 19434). Kind of test: Bacterial proliferation assay, E. faecium. Format: cell-based. An outline of the steps:
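This stagnant growth-inhibition assay used E. faecium (ATCC 19434) in cation-adjusted Brain Heart Infusion medium. Diluted cultures (OD600 0.017) were added to clear flat-bottom 384-well plates containing 0.5 μL compound in 20 μL media. After 24 h without shaking at 37° C., absorbance at 600 nm was measured, corrected with bacteria-free plates, and EC50 values were averaged from quadruplicates.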

Test [3] deals with Drug sensitive Staphylococcus aureus (ATCC 25923). Briefly: Bacterial proliferation assay, drug sensitive S. aureus. Format: cell-based. An outline of the steps:
(§1)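 Cation-adjusted BHI (25 mg/L Ca2+, 12.5 mg/L Mg2+); inoculum OD600 0.017; static 37 °C. Read OD600 at 6-8 h for S. aureus, E. cloacae, P. aeruginosa; 24 h for A. baumannii.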

The test system of test [4] is Methicillin resistant S. aureus (MRSA) (ATCC BAA-44). Kind of test: Bacterial proliferation assay, MRSA. It is filed as cell-based, Staphylococcus aureus. As to conditions: Staphylococcus aureus. Put shortly:
as §1

The test system of test [5] is Klebsiella Pneumonia (ATCC 13883). Kind of test: Bacterial proliferation assay, K. pneumoniae. Format: cell-based. Put shortly:
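Growth inhibition of K. pneumoniae (ATCC 13883) was measured in cation-adjusted BHI broth. An overnight culture was sub-cultured 1:5 for 1-2 hours, then diluted to OD600 of 0.017 and dispensed into compound-stamped 384-well plates. Plates were sealed with oxygen-permeable membranes and incubated without shaking at 37° C. for 6-8 h. Absorbance at 600 nm was corrected against bacteria-free control plates, and EC50 was averaged from quadruplicate replicates.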

In test [6] the test system is Pseudomonas aeruginosa (ATCC 10145). Kind of test: Bacterial proliferation assay, P. aeruginosa. Format: cell-based. An outline of the steps: as §1
The test system of test [7] is Enterobacter cloacae (ATCC 13047). Kind of test: Bacterial proliferation assay, E. cloacae. It is filed as cell-based. An outline of the steps: as §1
[8] abbreviates: log of IC50 (μM scale), with standard deviation, read-out: log(IC50) Native MDH Reporter (converted).
Setting [9] is: ATCC19434, OD600 at 24 h, read-out: Bacterial Proliferation EC50 E. faecium.
Where [10] appears, read: ATCC19434, log of EC50 (μM scale), with standard deviation, read-out: log(EC50) Bacterial Proliferation Assay C. faecium (converted).
Where [11] appears, read: ATCC25923, OD600 at 6-8 h, read-out: Bacterial Proliferation EC50 S. aureus Sensitive.
The mark [12] stands for this setting: ATCC25923, log of EC50 (μM scale), with standard deviation, read-out: log(EC50) Bacterial Proliferation Assay S. aureus Sensitive (converted).
[13] abbreviates: MRSA, OD600 at 6-8 h, read-out: Bacterial Proliferation EC50 S. aureus Resistant.
Setting [14] is: MRSA, log of EC50 (μM scale), with standard deviation, read-out: log(EC50) Bacterial Proliferation Assay S. aureus Resistant (converted).
Where [15] appears, read: ATCC13883, OD600 at 6-8 h, read-out: Bacterial Proliferation EC50 K. pneumoniae.
[16] abbreviates: ATCC13883, log of EC50 (μM scale), with standard deviation, read-out: log(EC50) Bacterial Proliferation Assay K. pneumoniae (converted).
Setting [17] is: ATCC10145, OD600 at 6-8 h, read-out: Bacterial Proliferation EC50 P. aeruginosa.
The mark [18] stands for this setting: ATCC10145, log of EC50 (μM scale), with standard deviation, read-out: log(EC50) Bacterial Proliferation Assay P. aeruginosa (converted).
[19] abbreviates: ATCC13047, OD600 at 6-8 h, read-out: Bacterial Proliferation EC50 E. cloacae.
The mark [20] stands for this setting: ATCC13047, log of EC50 (μM scale), with standard deviation, read-out: log(EC50) Bacterial Proliferation Assay E. cloacae (converted).
The mark [21] stands for this setting: read-out: Biochemical Assay IC50 Native MDH Reporter.
The mark [22] stands for this setting: ATCC19434, 24 h, read-out: Bacterial Proliferation EC50 E. faecium.
The mark [23] stands for this setting: ATCC19434, read-out: log(EC50) Bacterial Proliferation Assay C. faecium (converted).
Setting [24] is: ATCC25923, read-out: Bacterial Proliferation EC50 S. aureus Sensitive.
Where [25] appears, read: ATCC25923, read-out: log(EC50) Bacterial Proliferation Assay S. aureus Sensitive (converted).
Where [26] appears, read: read-out: Bacterial Proliferation EC50 S. aureus Resistant.
Where [27] appears, read: read-out: log(EC50) Bacterial Proliferation Assay S. aureus Resistant (converted).
[28] abbreviates: ATCC13883, read-out: Bacterial Proliferation EC50 K. pneumoniae.
[29] abbreviates: ATCC13883, read-out: log(EC50) Bacterial Proliferation Assay K. pneumoniae (converted).
Where [30] appears, read: ATCC10145, read-out: Bacterial Proliferation EC50 P. aeruginosa.
Where [31] appears, read: ATCC10145, read-out: log(EC50) Bacterial Proliferation Assay P. aeruginosa (converted).
The mark [32] stands for this setting: ATCC13047, read-out: Bacterial Proliferation EC50 E. cloacae.
[33] abbreviates: ATCC13047, read-out: log(EC50) Bacterial Proliferation Assay E. cloacae (converted).

Structures are written as SMILES. Like-named read-outs stand apart in the source and are kept apart here.

In the case of `CO[C@H]1/C=C/O[C@@]2(C)Oc3c(C)c(O)c4c(O)c(c(/C=N/N5CCN(C)CC5)c(O)c4c3C2=O)NC(=O)/C(C)=C\C=C\[C@H](C)[C@H](O)[C@@H](C)[C@@H](O)[C@@H](C)[C@H](OC(C)=O)[C@@H]1C` [Rifampicin, rifampicin, reference compound], the IC50 in test [1] (setting [8]) is above 63.1 µM. Besides, the EC50 in test [2] (setting [9]) was 0.13 µM; in test [2] (setting [10]), 0.126 µM; in test [3] (setting [11]), below 0.05 µM; in test [3] (setting [12]), below 0.0501 µM; in test [4] (setting [13]) it was 0.23 µM; in test [4] (setting [14]) it was 0.229 µM. The EC50 was 11 µM in test [5] (setting [15]); 11 µM in test [5] (setting [16]); 7.8 µM in test [6] (setting [17]); 7.76 µM in test [6] (setting [18]); 8.8 µM in test [7] (setting [19]); 8.71 µM in test [7] (setting [20]).
As for `COc1ccc(Br)cc1C(=O)Nc1ccc(Sc2nc3ccccc3s2)c(Cl)c1` [Compound 31, N-(4-(Benzo[d]thiazol-2-ylthio)-3-chlorophenyl)-5-bromo-2-methoxybenzamide], the IC50 in test [1] (setting [8]) is above 63.1 µM; in test [1] (setting [21]), above 63 µM. Moreover, the EC50 in test [2] (setting [9]), in test [2] (setting [10]), in test [3] (setting [11]), in test [3] (setting [12]), in test [4] (setting [14]) and in test [5] (setting [15]) was above 100 µM in each case. In addition, the EC50 in test [5] (setting [16]), in test [6] (setting [17]), in test [6] (setting [18]), in test [7] (setting [19]) and in test [7] (setting [20]) was above 100 µM each time.
For the compound `O=C(Nc1ccc(Sc2nc3ccccc3s2)c(Cl)c1)c1cccc(Br)c1O` [Compound 2, N-(4-(Benzo[d]thiazol-2-ylthio)-3-chlorophenyl)-3-bromo-2-hydroxybenzamide], in test [1], the “inhibition of native MDH enzymatic activity (in words)” value was “inactive against the reporter enzymes”. In addition, the values for the IC50 in test [1] (setting [8]) and in test [1] (setting [21]) were above 63.1 µM and above 63 µM, respectively. Also, the EC50 in test [2] (setting [22]) was 24 µM; in test [2] (setting [23]) it was 23.4 µM; in test [3] (setting [24]), 0.45 µM; in test [3] (ATCC25923, read-out: S. aureus Proliferation & Biofilm Assay EC50 Planktonic Growth) it was 0.45 µM; in test [3] (setting [25]) it was 0.457 µM; in test [4] (setting [26]) it was 0.71 µM. In addition, the EC50 in test [4] (setting [27]) is 0.708 µM; in test [5] (setting [28]), above 100 µM; in test [5] (setting [29]) it was above 100 µM; in test [6] (setting [30]), above 100 µM; in test [6] (setting [31]), above 100 µM; in test [7] (setting [32]), above 100 µM. In addition, in test [7] (setting [33]), the EC50 was above 100 µM.
In the case of `O=C(Nc1ccc(Sc2nc3ccccc3s2)cc1)c1cccc(Br)c1O` [Compound 6, N-(4-(Benzo[d]thiazol-2-ylthio)phenyl)-3-bromo-2-hydroxybenzamide], in test [1], the “inhibition of native MDH enzymatic activity (in words)” value is “inactive against the reporter enzymes”. Also, the figures for the IC50 in test [1] (setting [8]) and in test [1] (setting [21]) were above 63.1 µM and above 63 µM, respectively. The EC50 in test [2] (setting [22]) was 11 µM; in test [2] (setting [23]) it was 11.2 µM; in test [3] (setting [24]) it was 0.76 µM; in test [3] (setting [25]), 0.759 µM; in test [4] (setting [26]) it was 1.1 µM; in test [4] (setting [27]), 1.1 µM. Also, the EC50 in test [5] (setting [28]), in test [5] (setting [29]), in test [6] (setting [30]), in test [6] (setting [31]), in test [7] (setting [32]) and in test [7] (setting [33]) was above 100 µM each time.
With `COc1c(Br)cccc1C(=O)Nc1ccc(Sc2nc3ccccc3s2)c(Cl)c1` [Compound 30, N-(4-(Benzo[d]thiazol-2-ylthio)-3-chlorophenyl)-3-bromo-2-methoxybenzamide], the concentration for half-maximal inhibition (IC50) in test [1] (setting [8]) was above 63.1 µM; in test [1] (setting [21]), above 63 µM. In addition, the EC50 in test [2] (setting [9]), in test [2] (setting [10]), in test [3] (setting [11]), in test [3] (setting [12]), in test [4] (setting [14]) and in test [5] (setting [15]) was above 100 µM throughout. The EC50 in test [5] (setting [16]), in test [6] (setting [17]), in test [6] (setting [18]), in test [7] (setting [19]) and in test [7] (setting [20]) was above 100 µM each time.
On to `COc1ccc(Br)cc1C(=O)Nc1ccc(Sc2nc3ccccc3s2)cc1` [Compound 35, N-(4-(Benzo[d]thiazol-2-ylthio)phenyl)-5-bromo-2-methoxybenzamide], for which the IC50 in test [1] (setting [8]) is above 63.1 µM; in test [1] (setting [21]), above 63 µM. The EC50 in test [2] (setting [9]), in test [2] (setting [10]), in test [3] (setting [11]), in test [3] (setting [12]), in test [4] (setting [14]) and in test [5] (setting [15]) was above 100 µM throughout. For the same compound, the EC50 in test [5] (setting [16]), in test [6] (setting [17]), in test [6] (setting [18]), in test [7] (setting [19]) and in test [7] (setting [20]) was above 100 µM throughout.
`COc1ccccc1C(=O)Nc1ccc(Sc2nc3ccccc3s2)c(Cl)c1` [Compound 32, N-(4-(Benzo[d]thiazol-2-ylthio)-3-chlorophenyl)-2-methoxybenzamide]: the figures for the IC50 in test [1] (setting [8]) and in test [1] (setting [21]) were above 63.1 µM and above 63 µM, respectively. For the same compound, the EC50 in test [2] (setting [9]), in test [2] (setting [10]), in test [3] (setting [11]), in test [3] (setting [12]), in test [4] (setting [14]) and in test [5] (setting [15]) was above 100 µM throughout. In addition, the EC50 in test [5] (setting [16]), in test [6] (setting [17]), in test [6] (setting [18]), in test [7] (setting [19]) and in test [7] (setting [20]) was above 100 µM throughout.
For `O=C(Nc1cccc(Cl)c1)c1cccc(Br)c1` [Compound 24, 3-Bromo-N-(3-chlorophenyl)benzamide], the IC50 in test [1] (setting [8]) was above 63.1 µM; in test [1] (setting [21]) it was above 63 µM. Also, the EC50 in test [2] (setting [9]) is above 100 µM; in test [2] (setting [10]), above 100 µM; in test [3] (setting [11]) it was 47 µM; in test [3] (setting [12]), 46.8 µM; in test [4] (setting [13]), 68 µM; in test [4] (setting [14]) it was 67.6 µM. Besides, the EC50 in test [5] (setting [15]), in test [5] (setting [16]), in test [6] (setting [17]), in test [6] (setting [18]), in test [7] (setting [19]) and in test [7] (setting [20]) was above 100 µM throughout.
